Results on 39 compounds are retold here after BindingDB's records for doi:10.1021/jm5001979 (Amgen, 2014).

A value given as a limit tells only on which side of the number the result lay.

The term EC50 denotes the concentration giving half of the maximal effect. A lower EC50 goes with higher potency in that assay.

A short description of the test: Induction of GK translocation from nucleus to cytoplasm of mouse hepatocytes preincubated for 20 mins followed by glucose challenge measured after 40 mins by Hoechst 33342 staining-based assay.
Regarding `Nc1ccc(S(=O)(=O)N2CCN(c3ncc(C(O)(C(F)(F)F)C(F)(F)F)cc3-c3ccc(F)cc3)CC2)cn1`, the EC50 is 1380 nM.

The compound `Nc1ccc(S(=O)(=O)N2CCN(c3ccc(C(O)(C(F)(F)F)C(F)(F)F)cn3)CC2)cn1` showed a half-maximal effective concentration (EC50) of more than 12500 nM.

`Nc1ccc(S(=O)(=O)N2CCN(c3ncc(C(O)(C(F)(F)F)C(F)(F)F)cc3-c3ccc4scnc4c3)CC2)cn1`: the EC50 turned out to be 1150 nM.

The compound `Nc1ccc(S(=O)(=O)N2CCN(c3ncc(C(O)(C(F)(F)F)C(F)(F)F)cc3C#CCCO)CC2)cn1` showed a 50% effective concentration (EC50) of 2000 nM.

Regarding `NC(=O)c1cccc(-c2cc(C(O)(C(F)(F)F)C(F)(F)F)cnc2N2CCN(S(=O)(=O)c3ccc(N)nc3)CC2)c1`, the EC50 is 766 nM.

Take `Nc1ccc(S(=O)(=O)N2CCN(c3ncc(C(O)(C(F)(F)F)C(F)(F)F)cc3-c3ccc4sccc4c3)CC2)cn1`: the EC50 is more than 12500 nM.

As to `Nc1ccc(S(=O)(=O)N2CCN(c3ncc(C(O)(C(F)(F)F)C(F)(F)F)cc3-c3ccccc3O)CC2)cn1`, the 50% effective concentration (EC50) was 565 nM.

The compound `CN1C(=O)Cc2cc(-c3cc(C(O)(C(F)(F)F)C(F)(F)F)cnc3N3CCN(S(=O)(=O)c4ccc(N)nc4)CC3)ccc21` returned a half-maximal effective concentration (EC50) of 234 nM.

On to `Nc1ccc(S(=O)(=O)N2CCN(c3ncc(C(O)(C(F)(F)F)C(F)(F)F)cc3-c3ccncc3)CC2)cn1`, for which the concentration for a half-maximal effect (EC50) was determined as 933 nM.

With `COCC#Cc1cc(C(O)(C(F)(F)F)C(F)(F)F)cnc1N1CCN(S(=O)(=O)c2ccc(N)nc2)CC1`, the EC50 was found to be 254 nM.

For `CCn1cc(-c2cc(C(O)(C(F)(F)F)C(F)(F)F)cnc2N2CCN(S(=O)(=O)c3ccc(N)nc3)CC2)cn1`, the concentration for a half-maximal effect (EC50) was 81 nM.

`Nc1ccc(S(=O)(=O)N2CCN(c3ncc(C(O)(C(F)(F)F)C(F)(F)F)cc3-c3ccccc3F)CC2)cn1` returned a half-maximal effective concentration (EC50) of 803 nM.

`Cc1nc2cc(-c3cc(C(O)(C(F)(F)F)C(F)(F)F)cnc3N3CCN(S(=O)(=O)c4ccc(N)nc4)CC3)ccc2o1`: the midpoint of the response, the EC50, lay at 351 nM.

Regarding `Cc1csc(-c2cc(C(O)(C(F)(F)F)C(F)(F)F)cnc2N2CCN(S(=O)(=O)c3ccc(N)nc3)CC2)c1`, a half-maximal effect (EC50) was put at 1190 nM.

`CS(=O)(=O)c1ccc(-c2cc(C(O)(C(F)(F)F)C(F)(F)F)cnc2N2CCN(S(=O)(=O)c3ccc(N)nc3)CC2)cc1`: the EC50 amounted to 2950 nM.

In the case of `Cc1cncc(-c2cc(C(O)(C(F)(F)F)C(F)(F)F)cnc2N2CCN(S(=O)(=O)c3ccc(N)nc3)CC2)c1`, a half-maximal effect (EC50) was put at 794 nM.

`Nc1ccc(S(=O)(=O)N2CCN(c3ncc(C(O)(C(F)(F)F)C(F)(F)F)cc3-c3cc4ccccc4[nH]3)CC2)cn1`: the EC50 is 1120 nM.

`Nc1ccc(S(=O)(=O)N2CCN(c3ncc(C(O)(C(F)(F)F)C(F)(F)F)cc3-c3cc4ccccc4s3)CC2)cn1` had a half-maximal effective concentration (EC50) of 2750 nM.

As to `Nc1ccc(S(=O)(=O)N2CCN(c3ncc(C(O)(C(F)(F)F)C(F)(F)F)cc3-c3cccc(F)c3)CC2)cn1`, the EC50 was 2800 nM.

For `Nc1ccc(S(=O)(=O)N2CCN(c3ncc(C(O)(C(F)(F)F)C(F)(F)F)cc3C#CC3CC3)CC2)cn1`, it took 3350 nM to reach a half-maximal effect (EC50).

Turning to `Nc1ccc(S(=O)(=O)N2CCN(c3ncc(C(O)(C(F)(F)F)C(F)(F)F)cc3-c3cncc(F)c3)CC2)cn1`, the EC50 is more than 12500 nM.

The compound `Nc1ccc(S(=O)(=O)N2CCN(c3ncc(C(O)(C(F)(F)F)C(F)(F)F)cc3-c3ccc4c(c3)CC(=O)N4)CC2)cn1` displayed an EC50 of 309 nM.

In turn, `Nc1ccc(S(=O)(=O)N2CCN(c3ncc(C(O)(C(F)(F)F)C(F)(F)F)cc3Cl)CC2)cn1` gave a concentration for a half-maximal effect (EC50) of 6360 nM.

Compound `Cn1cc(-c2cc(C(O)(C(F)(F)F)C(F)(F)F)cnc2N2CCN(S(=O)(=O)c3ccc(N)nc3)CC2)cn1` yielded an EC50 of 52 nM.

With `Nc1ccc(S(=O)(=O)N2CCN(c3ncc(C(O)(C(F)(F)F)C(F)(F)F)cc3-c3ccccc3)CC2)cn1`, the concentration giving a half-maximal response (EC50) is 776 nM.

As to `Nc1ccc(S(=O)(=O)N2CCN(c3ncc(C(O)(C(F)(F)F)C(F)(F)F)cc3-c3ccoc3)CC2)cn1`, the concentration for a half-maximal effect (EC50) amounted to 1730 nM.

Turning to `Nc1ccc(S(=O)(=O)N2CCN(c3ncc(C(O)(C(F)(F)F)C(F)(F)F)cc3-c3ccc4[nH]ncc4c3)CC2)cn1`, the EC50 turned out to be 2630 nM.

Turning to `COc1ccc(-c2cc(C(O)(C(F)(F)F)C(F)(F)F)cnc2N2CCN(S(=O)(=O)c3ccc(N)nc3)CC2)cn1`, the concentration for a half-maximal effect (EC50) amounted to 1400 nM.

`CC(C)(O)C#Cc1cc(C(O)(C(F)(F)F)C(F)(F)F)cnc1N1CCN(S(=O)(=O)c2ccc(N)nc2)CC1` displayed an EC50 of 2140 nM.

Turning to `Nc1ccc(S(=O)(=O)N2CCN(c3ncc(C(O)(C(F)(F)F)C(F)(F)F)cc3C#CCO)CC2)cn1`, the EC50 is 510 nM.

`Nc1ccc(S(=O)(=O)N2CCN(c3ncc(C(O)(C(F)(F)F)C(F)(F)F)cc3-c3cnccc3F)CC2)cn1` yielded an EC50 of 1290 nM.

The compound `Cc1ccc(-c2cc(C(O)(C(F)(F)F)C(F)(F)F)cnc2N2CCN(S(=O)(=O)c3ccc(N)nc3)CC2)cn1` registered an EC50 of 4680 nM.

In turn, `Nc1ccc(S(=O)(=O)N2CCN(c3ncc(C(O)(C(F)(F)F)C(F)(F)F)cc3-c3cc[nH]n3)CC2)cn1` yielded a half-maximal effective concentration (EC50) of 11200 nM.

`COc1cncc(-c2cc(C(O)(C(F)(F)F)C(F)(F)F)cnc2N2CCN(S(=O)(=O)c3ccc(N)nc3)CC2)c1` returned an EC50 of 1400 nM.

In the case of `Nc1ccc(S(=O)(=O)N2CCN(c3ncc(C(O)(C(F)(F)F)C(F)(F)F)cc3Br)CC2)cn1`, the response was half-maximal at 5370 nM (EC50).

Take `Cc1c(-c2cc(C(O)(C(F)(F)F)C(F)(F)F)cnc2N2CCN(S(=O)(=O)c3ccc(N)nc3)CC2)cnn1C`: the EC50 amounted to 1260 nM.

On to `CC(C)(C)n1cc(-c2cc(C(O)(C(F)(F)F)C(F)(F)F)cnc2N2CCN(S(=O)(=O)c3ccc(N)nc3)CC2)cn1`, for which the concentration for a half-maximal effect (EC50) stood at 2450 nM.

The compound `Nc1ccc(S(=O)(=O)N2CCN(c3ncc(C(O)(C(F)(F)F)C(F)(F)F)cc3-c3ccc4ocnc4c3)CC2)cn1` showed an EC50 of 416 nM.

In turn, `CC(C)n1cc(-c2cc(C(O)(C(F)(F)F)C(F)(F)F)cnc2N2CCN(S(=O)(=O)c3ccc(N)nc3)CC2)cn1` displayed an EC50 of 1080 nM.
